Experiment: FUS-BBBO delivery of Evans Blue to the mouse brain under closed-loop feedback control (fluorescence imaging of brain slices)
Type: in vivo, Swiss mice
Details: for drug delivery area (average): area with fluorescence higher than 10 dB above background of brain tissue; for fluorescence intensity of the delivered Evans Blue, increase relative to the 0.5 dB group: brainstem ROI, 30 μL of 4% Evans Blue i.v. after FUS, 30 min after sonication
Description: 25 Swiss mice (8-10 weeks, ˜25 g body weight, female, Charles River Laboratory, Wilmington, MA, USA) were randomly assigned into five groups (n=5 for each group) to evaluate five different TCLs using the disclosed algorithm. Swiss mice (8-10 weeks, ˜25 g body weight, female, Charles River Laboratory, Wilmington, MA, USA) were housed in a room maintained at 22° C. and 55% relative humidity, with a 12-h/12-h light/dark cycle and access to standard laboratory chow and water. […] Four Swiss mice were selected to evaluate an existing closed-loop feedback control algorithm with the TCL defined based on the detection of sub-harmonics. During all experiments, mice were anesthetized with 1.5-2% isoflurane and stabilized using a stereotaxic apparatus (Kopf, Tujunga, CA, USA). A heating pad with a temperature kept at ˜38° C. was used to maintain the mouse's body temperature. Mice were prepared for FUS sonication by removing fur on top of the head with a depilatory cream (Nair, Church & Dwight Co., NJ, USA) and coupled to a water container using ultrasound gel. A catheter was placed into the tail vein for microbubbles and Evans blue injection.
A microbubble contrast agent (Definity, Lantheus Medical Imaging, North Billerica, MA) was diluted using sterile saline to a final concentration of approximately 8×10^8 microbubbles per mL. A bolus of diluted microbubble contrast agent (volume=30 μL) was injected intravenously into each mouse through a tail vein catheter. The injection was performed using a computer-controlled syringe pump (NE-1600; New Era Pump Systems Inc.). Microbubbles infusion was started 15 s before FUS sonication to allow microbubbles to flow through the tail vein catheter and reach the mouse brain. The infusion lasted until the end of sonication at a constant rate of 12.8 μL/min. All mice were treated by FUS with output pressure controlled in real-time using the disclosed PCD-based closed-loop feedback control algorithm. The treatment procedure followed a two-step process. A representative example of sonication sequence and detected cavitation level is illustrated in FIG. 20.
A baseline stable cavitation (SC) level was established for each mouse with dummy FUS sonication after injecting the microbubbles. FUS sonication was performed using a pulse repetition frequency of 2 Hz, a pulse length of 6.7 ms burst (i.e., duty cycle: 1.33%), and a sonication duration of 5 s. The output pressure of FUS was 0.2 MPa (all pressures reported were the peak negative pressures calibrated in water). This pressure was selected because it was the lowest pressure at which the microbubble cavitation signal was higher than the noise level without microbubble injection and lower than the pressures needed to induce BBB disruption. During the sonication by each FUS pulse, acoustic emission from microbubbles was recorded by the PCD transducer and processed by a Fast-Fourier transform (FFT) algorithm. SC level was calculated by summing the magnitude of the spectrum within a ±0.02 MHz bandwidth at the third harmonic (i.e., 4.5 MHz) of the FUS transducer. The third harmonic emission was chosen because it was at the center frequency of the PCD transducer. Ten PCD signals were acquired, and the average of SC levels calculated from these ten signals was used to define the baseline SC level.
After establishing the baseline SC level as described above, the mice were further subjected to FUS sonication using the FUS-BBBO with real-time feedback control disclosed herein. During FUS sonication with microbubbles infusion, cavitation was monitored by PCD in real-time, and a custom closed-loop feedback control algorithm was used to control the SC level to be at different TCLs defined to be 0.5 dB, 1 dB, 2 dB, 3 dB, or 4 dB above the baseline SC level. […]

drug delivery area (average) (TCL 0.5 dB): 9.6 mm^2 | fluorescence intensity of the delivered Evans Blue, increase relative to the 0.5 dB group (TCL 1 dB above baseline SC level): 2.4 fold | fluorescence intensity of the delivered Evans Blue, increase relative to the 0.5 dB group (TCL 2 dB above baseline SC level): 5.3 fold | fluorescence intensity of the delivered Evans Blue, increase relative to the 0.5 dB group (TCL 3 dB above baseline SC level): 8.2 fold | drug delivery area, increase as TCL was raised from 0.5 dB to 3 dB (TCL 3 dB versus 0.5 dB): 11.7 fold | drug delivery area (average) (TCL 3 dB): 112.8 mm^2 | fluorescence intensity and drug delivery area with respect to the values at a TCL of 3 dB (TCL 4 dB): slightly decreased
SMILES: Cc1cc(-c2ccc(/N=N/c3ccc4c(S(=O)(=O)O)cc(S(=O)(=O)O)c(N)c4c3O)c(C)c2)ccc1/N=N/c1ccc2c(S(=O)(=O)O)cc(S(=O)(=O)O)c(N)c2c1O [Evans Blue]

Reference: patent US20250040914A1, “SYSTEMS AND METHODS FOR FOCUSED ULTRASOUND-ENABLED LIQUID BIOPSY” (Washington University, priority 2021, published 2025)
